Source: article doi:10.1101/2025.04.25.650653, “Hierarchical small molecule inhibition of MYST acetyltransferases” (bioRxiv, 2025)
Where “and” joins values, the source holds several entries; their conditions need not be identical. Equal values may be shown once.

Assays:
[1] = test system: H3K18Ac (KAT3A/B); assay: Histone biomarker bottom-up LC-MS/MS, MCF-7; assay type: cell-based; details: for Ratio, H3_18_26 K18ac: Replicates 1-3
[2] = test system: H3K23Ac (KAT6A/B); assay: Histone biomarker bottom-up LC-MS/MS, MCF-7; assay type: cell-based; details: for Ratio, H3_18_26 K23ac: Replicates 1-3
Excerpt: In this approach. […] Histones are then extracted from cell pellets and chemically derivatized with propionic anhydride, digested with trypsin, subjected to a second round of propionylation, and analyzed by LC-MS/MS. Measuring the relative intensity of modified versus unmodified forms of individual histone peptides enables simultaneous monitoring of multiple potential biomarkers of MYST inhibition. To minimize false positives, we focused on abundant and reproducible modifications (average stoichiometry of greater than 1% across triplicate samples, standard deviation less than or equal to the average measurement). To account for potential histone modification crosstalk, changes in both acetylated and methylated peptides were evaluated. 38 modified peptides passed this reproducible detection threshold including several established KAT biomarkers[41] including H3K9Ac (KAT2A/B), H3K18Ac (KAT3A/B), H3K14Ac (KAT7), H3K23Ac (KAT6A/B), H4K16Ac (KAT8), and H2A.ZK4/K7Ac (KAT5; Fig. 4B).
Genetic perturbations have unambiguously determined the dependence of H3K23Ac on KAT6A/B.[9], [41] The H3K23Ac biomarker critically complements chemoproteomics by allowing sensitive assessment of KAT6A and KAT6B activity, whose active site occupancy is otherwise difficult to assess. […] This is significant since several studies have used H3K9Ac as a proxy for KAT6A/B inhibition (Table S7),[8], [42] even though its regulation is most commonly attributed to KAT2A/B.[41] Since LC-MS/MS assays require specialized equipment and technical expertise, we also validated a panel of histone acetylation antibodies that recapitulate the dose-dependent inhibition of MYST targets by western blot (Fig. 4E). […]
nuclei were pelleted by centrifugation (600 rcf, 4°C, 5 min). Pelleted nuclei were washed twice with 150 μL of detergent-free NIB buffer, followed by centrifugation (600 rcf, 4°C, 5 min) to remove all detergent.
Nuclei were then resuspended in 400 μL of 0.4 N H₂SO₄ and rotated at 4°C overnight for acid extraction of histones. The following day, samples were centrifuged (11,000 rcf, 4°C, 10 min) and the histone-containing supernatant was transferred to a fresh tube. Trichloroacetic acid (100% TCA) was added to achieve a final concentration of 20% (v/v), tubes were inverted once to mix, and histone precipitation was performed on ice for at least 3 hours or overnight at 4°C. Precipitated histones were collected by centrifugation (11,000 rcf, 4°C, 10 min) and the supernatant carefully removed, leaving a visible film of histones on the tube wall or bottom. Histone pellets were subjected to sequential washes with 1 mL of ice-cold acidified acetone (0.1% 12 N HCl) followed by 1 mL of 100% ice-cold acetone, with centrifugation (11,000 rcf, 4°C, 5 min) after each wash. Samples were air-dried at room temperature, resuspended in 40 µL of ddH₂O, and protein […]
analysis, 1-2 µg of purified histones were loaded per lane and processed according to the general immunoblotting protocol described in General Materials and Methods.
Analysis of histone modifications by LC-MS/MS
Preparation of histone samples for LC-MS/MS was performed analogously to the procedure for immunoblotting above, with the following modifications. MCF7 cells (4.2 × 106) were seeded in 15 cm dishes and treated with PF-9363 or vehicle. Experiments were performed in triplicate. Following treatment and PBS washing, cells were scraped and collected in 15 mL falcon tubes, pelleted (500 rcf, 4°C, 5 min), resuspended in 1 mL cold PBS, transferred to microcentrifuge tubes, and pelleted again before flash-freezing in liquid nitrogen for storage at -80°C. For extraction, cell pellets (~100 μL) were resuspended in NIB buffer at a 1:10 ratio, and cells were lysed with NIB buffer containing 0.2% NP-40 for 8 minutes on ice. Nuclei were pelleted at 1,000 rcf for 8 minutes and washed three times with 500 μL detergent-free NIB

[3] = biological target: KAT7 (Homo sapiens, UniProt O95251); assay: Competitive chemoproteomic profiling (H3K14-CoA affinity capture, western blot and LC-MS/MS); details: 0.1 μM, HeLa nuclear extracts
[4] = test system: H4K16Ac (KAT8); assay: Histone acetylation biomarker western blot, MCF-7; assay type: cell-based; details: MCF-7 cells, 24 h, up to 30 μM
Protocol: Target engagement was assessed using the panel of MYST-dependent histone acetylation biomarkers defined above. […] While WM-3835 has been applied to study KAT7, its initial publication alludes to its ability to inhibit both KAT6A/B and KAT7.[14], [43] […] All commercial vendors currently market WM-3835 as a KAT7 inhibitor.
General materials and methods
Total protein on western blots was […]
manufacturer's protocols.
KAT capture and competitive chemoproteomic profiling […]
for 2 hours, then lyophilized.
12 μL triethylamine. […] The beads were then magnetically separated […]
distinguish between tightly grouped and diffuse clusters, compactness was quantified by calculating the average pairwise Euclidean distance between all points within each cluster. Clusters with lower average

[5] = test system: MYST KAT complexes (KAT7, KAT8, KAT5) in HeLa nuclear extracts; assay: Competitive chemoproteomic profiling (H3K14-CoA affinity capture) of native MYST complexes; assay type: binding
Protocol: Proteins belonging to multiple KAT complexes are characterized by distinct competition profiles.
The beads were washed three times
during the bead coating step.
hours with end-over-end mixing.
After magnetic separation for 3 minutes,
conditions, and both eluates were combined.
Membranes were probed with antibodies

[6] = test system: proteins captured by H3K14-CoA resin from HeLa nuclear extracts; assay: Proteome-wide competitive chemoproteomic profiling (H3K14-CoA beads, TMT LC-MS/MS); assay type: binding; details: for Log2FC PF9363-100nM / PF9363-0nM / Log2FC PF9363-1000nM / PF9363-0nM / Log2FC PF9363-10000nM / PF9363-0nM: H3K14-CoA beads, TMT

Sequence of KAT7 (O95251 whole entry): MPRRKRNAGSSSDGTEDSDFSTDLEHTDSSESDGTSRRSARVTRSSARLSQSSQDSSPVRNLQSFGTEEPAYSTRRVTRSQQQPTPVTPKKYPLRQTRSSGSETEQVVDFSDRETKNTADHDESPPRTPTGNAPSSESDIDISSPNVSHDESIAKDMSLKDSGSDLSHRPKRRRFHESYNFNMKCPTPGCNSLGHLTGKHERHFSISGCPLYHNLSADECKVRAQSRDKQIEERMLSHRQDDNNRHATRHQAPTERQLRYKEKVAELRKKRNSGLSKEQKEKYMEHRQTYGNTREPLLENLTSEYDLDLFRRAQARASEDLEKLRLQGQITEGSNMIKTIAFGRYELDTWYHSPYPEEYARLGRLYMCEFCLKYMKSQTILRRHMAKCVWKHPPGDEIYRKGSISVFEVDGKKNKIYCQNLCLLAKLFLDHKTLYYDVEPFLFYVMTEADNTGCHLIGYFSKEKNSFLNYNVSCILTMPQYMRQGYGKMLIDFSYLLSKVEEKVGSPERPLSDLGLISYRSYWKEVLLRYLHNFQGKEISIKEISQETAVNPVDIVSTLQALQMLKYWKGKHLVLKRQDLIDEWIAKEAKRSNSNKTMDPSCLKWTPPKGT

## COc1cccc(OC)c1S(=O)(=O)Nc1noc2cc(Cn3cccn3)cc(OC)c12 [PF-9363]
[1]; KAT marker KAT3A/B, PF-9363 0.1 v 30
  Fold-change 0.1 v 30, H3_18_26 K18ac: 1.39
[1]; KAT marker KAT3A/B, PF-9363 (0.1 mM)
  Average ratio, H3_18_26 K18ac: 0.0171
[1]; KAT marker KAT3A/B, PF-9363 (30 mM)
  Average ratio, H3_18_26 K18ac: 0.0123
[1]; KAT marker KAT3A/B, dose 0.1
  Ratio, H3_18_26 K18ac: 0.01666 and 0.01829 and 0.01641
[1]; KAT marker KAT3A/B, dose 1
  Ratio, H3_18_26 K18ac: 0.01874 and 0.01672 and 0.01619
[1]; KAT marker KAT3A/B, dose 10
  Ratio, H3_18_26 K18ac: 0.01831 and 0 and 0.01771
[1]; KAT marker KAT3A/B, dose 30
  Ratio, H3_18_26 K18ac: 0 and 0.0193 and 0.01765
[1]; MCF-7 cells, 24 h, any concentration (0.1-30 μM)
  modulation of H3K18Ac: not found to modulate
[2]; 0.1 μM, 24 h, MCF-7 cells
  reduction of H3K23Ac: ~ 80%
[2]; KAT marker KAT6A/B, PF-9363 0.1 v 30
  Fold-change 0.1 v 30, H3_18_26 K23ac: 7.11
[2]; KAT marker KAT6A/B, PF-9363 (0.1 mM)
  Average ratio, H3_18_26 K23ac: 0.0330
[2]; KAT marker KAT6A/B, PF-9363 (30 mM)
  Average ratio, H3_18_26 K23ac: 0.0046
[2]; KAT marker KAT6A/B, dose 0.1
  Ratio, H3_18_26 K23ac: 0.02851 and 0.03904 and 0.03134
[2]; KAT marker KAT6A/B, dose 1
  Ratio, H3_18_26 K23ac: 0.02199 and 0.02064 and 0.0179
[2]; KAT marker KAT6A/B, dose 10
  Ratio, H3_18_26 K23ac: 0.01047 and 0 and 0.009458
[2]; KAT marker KAT6A/B, dose 30
  Ratio, H3_18_26 K23ac: 0 and 0.006901 and 0.007012
[3]
  co-competition of KAT7 JADE complex members: caused co-competition of JADE2, MEAF6, and ING4/5
[4]
  inhibition of KAT8 (H4K16Ac): able to inhibit KAT8-catalyzed H4K16Ac
[5]; 1 and 10 μM, HeLa nuclear extracts
  competition of capture of KAT8-containing MSL and NSL complexes and KAT5-containing NuA4 complex: competed capture of all CORUM-annotated members
[5]; HeLa nuclear extracts, chemoproteomic competition
  sensitivity of KAT complexes, general order: KAT7 > KAT8 > KAT5
[5]; chemoproteomic profiling and histone acetylation biomarkers
  hierarchical inhibition order of native KAT complexes: KAT6A/B > KAT7 >> KAT8 > KAT5
[6]; 0, 0.1, 1, 10 μM
  competition of capture of NAT10, ESCO1, KAT2B (other clusters): relatively insensitive
[6]; protein BLM (P54132)
  Log2FC PF9363-100nM / PF9363-0nM: 0.02
  Log2FC PF9363-1000nM / PF9363-0nM: 0.03
  Log2FC PF9363-10000nM / PF9363-0nM: 0.05
[6]; protein BRPF3
  concentration at which BRPF3 capture is competed: 10 µM
[6]; protein MKI67 (P46013)
  Log2FC PF9363-100nM / PF9363-0nM: -0.01
  Log2FC PF9363-1000nM / PF9363-0nM: -0.01
  Log2FC PF9363-10000nM / PF9363-0nM: 0.02
[6]; protein NUMA1 (Q14980)
  Log2FC PF9363-100nM / PF9363-0nM: 0.02
  Log2FC PF9363-1000nM / PF9363-0nM: 0.05
  Log2FC PF9363-10000nM / PF9363-0nM: 0.06
[6]; protein TRRAP (Q9Y4A5)
  Log2FC PF9363-100nM / PF9363-0nM: -0.05
  Log2FC PF9363-1000nM / PF9363-0nM: -0.12
  Log2FC PF9363-10000nM / PF9363-0nM: -0.22
